What was measured:
Format in all cases: in vivo
[1] = test system: iNOS mRNA; experiment: TNBS-induced colitis in mice, colonic iNOS mRNA by RT-PCR; conditions: dose equimolar to 50 mg/kg mesalamine; FIG. 14
Procedure: (§1) The same model was used as described above. In this example, the effects of mesalamine (50 mg/kg) were compared to those of equimolar doses of Compound XXXV. In addition to measuring the severity of colitis by measuring disease activity score and MPO activity, tissues were processed for measurement of a number of genes for inflammatory cytokines and other mediators.
(§2) In particular, mRNA expression in mice of tumour necrosis factor-alpha (TNF-α), interferon gamma (IFN-γ), colonic interleukin (IL)-1, IL-2, IL-10, IL-12 p40, RANTES, cyclooxygenase (COX)-1, COX-2, constitutive endothelial nitric oxide synthase (eNOS), and inducible NOS (iNOS) was measured as described in Wallace et al. (1999) Gastroenterology 117: 557-566, incorporated herein by reference.
(§3) Briefly, reverse transcription-polymerase chain reaction (RT-PCR) was used to detect and quantify mRNA of the particular cytokine/chemokine/enzyme. Glyceraldehyde-3-phosphate dehydrogenase (GAPDH) was used as the “housekeeping gene” for mRNA expression (i.e., as an internal control). For each sample, the ratio of the amplification of the target gene to the amplification of GAPDH (expression of each is measured by performing densitometry on gels) was obtained. […]

[2] = test system: TNF-α, IFN-γ, IL-1, IL-2, IL-12 p40, RANTES mRNA; experiment: TNBS-induced colitis in mice, colonic mRNA of pro-inflammatory cytokines and chemokines by RT-PCR; conditions: dose equimolar to 50 mg/kg mesalamine; normalized to GAPDH, ratio to healthy controls
Procedure: as §1, §2, §3

[3] = test system: COX-1 mRNA; experiment: TNBS-induced colitis in mice, colonic COX-1 mRNA by RT-PCR; conditions: dose equimolar to 50 mg/kg mesalamine; FIG. 13
Procedure: as §1, §2, §3

Question: With Nc1ccc(O)c(C(=O)Oc2ccc(-c3cc(=S)ss3)cc2)c1 [Compound XXXV, 5-Amino-2-hydroxy-benzoic acid 4-(5-thioxo-5H-[1,2]dithiol-3-yl)-phenyl ester] as the molecule, how does the “iNOS mRNA expression” value [1] read?
Answer: Its value is “suppressed”.

Question: What about the “Expression of mRNA for pro-inflammatory cytokines and chemokines” value [2] of the same molecule?
Answer: The value was “suppressed expression of mRNA for several pro-inflammatory cytokines and chemokines”.

Question: And the “COX-1 mRNA expression” value [3]?
Answer: Its value is “suppressed”.
